{"source": "patent US20010001101A1", "about": "“Phenanthroline derivatives” (Zeneca Limited, priority 1997, published 2001)", "key": {"[1]": {"system": "kidney fibrosis after Adriamycin injection", "assay": "kidney fibrosis rat model (Adriamycin)", "assay_type": "in vivo", "description": "(f) Various in vivo animal models to determine the applicability of utilizing the compounds of the present invention to treat fibrotic disorders specific to certain cell types or organs. For example, a cardiac fibrosis model in rats, as generally described in Kondo et al., Cardiovascu. Res. 21:248-254 (1987), and Benjamin et al., Circulation Res. 65(3):657-670 (1989), may be used to measure the effectiveness of the compounds of the present invention to inhibit cardiac fibrosis, as well as provide evidence of the regeneration of cardiac cells upon inhibition of fibrotic cell proliferation. Similarly, the left carotid artery injury model, as described generally in Clowes et al., Lab Invest. 49:327-33 (1983), Muller et al., Am. Col. Cardio. 19(2):418 (1992), and Jackson, Trends Cardiovasc. Med. 4:122-130 (1994), may be used to determine the effectiveness of the compounds of the instant invention in vascular remodeling. Other models, such as in vivo brain injury models (see e.g., Berry et al., Acto Neurochrurgica, Suppl., 32:31-53 (1993), Logan et al., Brain Research 587:216-255 (1992)), in vivo kidney fibrosis models (see e.g., DiDonato et al., Nephron 76(2):192-200 (1997), in vivo post-surgical abdominal adhesions model (see e.g., Cohen et al., J. Trauma 30(12):S149-154 (1990), Stein & Keiser, J. Surg. Res. 11:277 (1971), Diegelman et al., J. Surg. Res. 19:239-43 (1975)) may be used to determine the effectiveness of the compounds of the instant invention to treat fibrotic disorders related to the brain, kidney, abdomen and dermis, as well as provide information related to the treatment of other major organs.\nThe effectiveness of the compounds of the instant invention to treat kidney fibrosis was determined using a kidney fibrosis rat model, as generally described above. More specifically, male SD rats weighing approximately 200-225 g each were injected intravenously with Adriamycin (Pharmacia, MI) on day 1 and again on day 15. The Adriamycin was dissolved in 0.5 ml sterile physiologic saline and infused slowly into the tail vein to ensure complete delivery and to avoid perivascular tissue destruction of the drug.\nThree treatment groups were established following Adriamycin injections. The rats were randomly assigned to receive a twice daily gavage of Compound 12 or control (1% CMC). Five animals from each group were sacrificed on week 6, 8 or 12."}, "dermal punch wound": {"system": "dermal punch wound", "assay": "dermal wound healing, rat punch model", "assay_type": "in vivo", "conditions": "compared to control", "method": "FIG. 5 illustrates wound area after treatment of Compound 3 in the dermal punch model.\n(§1) The effectiveness of the compounds in dermal wound healing was tested using two wound healing models—rat punch model and rat incisional model—as described above."}, "[2]": {"system": "granulation tissue in wound chamber", "assay": "in vivo wound chamber model", "parameters": "species or system rat", "method": "(e) An in vivo wound chamber model involving the measurement of histological changes in granulation tissue. The test compounds were tested in rats according to the procedures generally described in Schilling et al., Surgery 46(4):702-710 (1959), Hunt et al., Am. J. Surgery 114:302-307 (1967), and Grotendorst et al., J. Clin Inves. 76:2323-2329 (1985). More specifically, stainless wire mesh cylinders were implanted subcutaneously under the back skin of rats (two chambers per animal). The compounds of the present invention were then dissolved in DMSO and injected into each chamber on a daily basis at various concentrations from either day 0-14 or day 7-14. On day 14, the chambers were collected and the granulation tissues contained within the chambers were collected for biochemical (collagen content) or histological evaluation.\nFollowing the in vivo wound chamber model described above, fourteen of the claimed compounds tested to determine the effectiveness of the claimed compounds in inhibiting collagen deposition in the wound chamber."}, "[3]": {"system": "balloon injured carotid arteries", "assay": "rat restenosis model (balloon carotid artery injury)", "assay_type": "in vivo", "conditions": "50 mg/kg oral gavage twice daily day 0-14; day 14", "description": "(§2) (f) Various in vivo animal models to determine the applicability of utilizing the compounds of the present invention to treat fibrotic disorders specific to certain cell types or organs. For example, a cardiac fibrosis model in rats, as generally described in Kondo et al., Cardiovascu. Res. 21:248-254 (1987), and Benjamin et al., Circulation Res. 65(3):657-670 (1989), may be used to measure the effectiveness of the compounds of the present invention to inhibit cardiac fibrosis, as well as provide evidence of the regeneration of cardiac cells upon inhibition of fibrotic cell proliferation. Similarly, the left carotid artery injury model, as described generally in Clowes et al., Lab Invest. 49:327-33 (1983), Muller et al., Am. Col. Cardio. 19(2):418 (1992), and Jackson, Trends Cardiovasc. Med. 4:122-130 (1994), may be used to determine the effectiveness of the compounds of the instant invention in vascular remodeling. […]\nThe effectiveness of Compound 12 in vascular remodeling, as determined in a rat restenosis model, was determined by using a left carotid artery injury rat model, as generally described above. […]"}, "dermal incisional wound": {"system": "dermal incisional wound", "assay": "dermal wound healing, rat incisional model", "assay_type": "in vivo", "conditions": "compared to control", "method": "FIG. 6 illustrates the tensile strength on dermal incisional wound on day 7 after oral treatment of Compound 3 and Compound 12.\nFIG. 7 illustrates the tensile strength of incisional wound after local injections of Compound 12.\nas §1"}, "[4]": {"system": "isoproterenol-induced myocardial fibrosis", "assay": "rat isoproterenol-induced myocardial fibrosis model", "assay_type": "in vivo", "conditions": "left ventricular function at week 6; 50 mg/kg oral gavage twice daily day 4 to day 11", "description": "as §2, with “Col.” for “Col. Cardio. 19(2):418 (1992), and Jackson, Trends Cardiovasc. Med. 4:122-130 (1994), may be used to determine the effectiveness of the compounds of the instant invention in vascular remodeling.”\nThe effectiveness of one of the compounds of the present invention to inhibit cardiac fibrosis and permit the regeneration of cardiac cells was tested in the cardiac fibrosis model generally described above. […] The compound was administered after suspension in 1% CMC at 50 mg/kg by oral gavage twice daily from day 4 to day 11 and histological data was evaluated on day 11 by general histology (H&E and trichrome) and immunohistochemical staining for proliferating cell nuclear antigen (PCNA). Cardiac function (left ventricular function) was measured by inserting a catheter into the left ventricle for measurement of relaxation and contraction pressure on week 6."}, "[5]": {"system": "scar tissue in the brain following injury", "assay": "brain injury model", "assay_type": "in vivo, rat", "conditions": "oral gavage twice daily day 0 to 14, day 14", "description": "as §2"}}, "data": [{"smiles": "O=C(O)C1C=Nc2c(ccc3cccnc23)C1=O", "note": "(centres unmarked) [Compound 12, 3-carboxy-4-oxo-3,4-dihydro-1,10-phenanthroline]", "values": [{"measurement": "development of renal hypertension", "setting": "[1]; twice daily gavage, versus control", "result": "blocked the development of renal hypertension"}, {"measurement": "development of kidney fibrosis (histology)", "setting": "[1]; twice daily gavage, versus control (1% CMC)", "result": "prevented the development of kidney fibrosis"}, {"measurement": "Cardiac function", "setting": "[1]; week 12", "result": "improved"}, {"measurement": "long term toxicity, as measured by mean body weight and bone density", "setting": "[1]; week 12", "result": "not material"}, {"measurement": "healing time", "setting": "dermal punch wound", "result": "increased healing time"}, {"measurement": "response vs control in vivo at 0.05 mg", "setting": "[2]; Rattus norvegicus, 50 μg dosage, injected into chamber daily, day 7-14 treatment, read-out: Mean Collagen content (% of Control) On Day 14", "result": 80.7, "unit": "%"}, {"measurement": "apoptotic cell numbers (positive staining of apoptotic cells)", "setting": "[2]; wound chamber", "result": "dose-dependently increased positive staining of apoptotic cells"}, {"measurement": "rebound of collagen accumulation after discontinuing administration", "setting": "[2]; wound chamber, at higher doses", "result": "prevented rebound of collagen accumulation"}, {"measurement": "development of neointimal formation", "setting": "[3]", "result": "significantly reduce the development of neointimal formation"}, {"measurement": "tensile strength of wound", "setting": "dermal incisional wound", "result": "reduced tensil strength"}, {"measurement": "Contraction pressure (dP/dt, mm Hg)", "setting": "[4]", "result": "5770 ± 95.1", "unit": "mm Hg"}, {"measurement": "Relaxation pressure (Min-P, mm Hg)", "setting": "[4]", "result": "2.7 ± 0.8", "unit": "mm Hg"}, {"measurement": "activation of astrocytes", "setting": "[5]; GFAP staining", "result": "decreased the activation of actrocytes"}, {"measurement": "collagen deposition in the scar", "setting": "[5]; type I collagen staining", "result": "reduced collagen deposition in the scar"}]}]}
